In ChEMBL document CHEMBL4393739, “Design, synthesis and anti-inflammatory evaluation of novel pyrrolo[2,3-d]pyrimidin derivatives as potent JAK inhibitors” (Bioorg Med Chem, 2019):
Active and inactive are the calls of the source. The rule behind the calls is not given here.

Tested on: RAW264.7
Experiment: Cytotoxicity against mouse RAW264.7 cells assessed as cell growth inhibition measured after 24 hrs by MTT assay
Format: cell-based
Details: Mus musculus, RAW264.7, 24 h

Compound	IC50 [µM]
O=C(O)C1CCN(CC(=O)N2CCC(n3cc(-c4ncnc5[nH]ccc45)cn3)CC2)CC1	80.9
CC1CCN(CC(=O)N2CCC(n3cc(-c4ncnc5[nH]ccc45)cn3)CC2)CC1	88.2

Same assay, conditions: mouse, raw264.7, 24 h

Compound	Activity
O=C(O)C1CCN(CC(=O)N2CCC(n3cc(-c4ncnc5[nH]ccc45)cn3)CC2)CC1	Dose-dependent effect
CC1CCN(CC(=O)N2CCC(n3cc(-c4ncnc5[nH]ccc45)cn3)CC2)CC1	Dose-dependent effect

Tested on: RAW264.7
Experiment: Antiinflammatory activity in LPS-induced mouse RAW264.7 cells assessed as protection against cell damage by measuring reduction in apoptotic body formation at 10 ug/ml cotreated with LPS measured after 18 hrs by light microscopy
Format: functional, cell-based
Details: not given

Compound	Activity
O=C(O)C1CCN(CC(=O)N2CCC(n3cc(-c4ncnc5[nH]ccc45)cn3)CC2)CC1	Active
CC1CCN(CC(=O)N2CCC(n3cc(-c4ncnc5[nH]ccc45)cn3)CC2)CC1	Active

Tested on: RAW264.7
Experiment: Antiinflammatory activity in mouse RAW264.7 cells assessed as reduction in LPS-induced JAK1 expression by Western blot analysis
Format: functional, cell-based
Details: not given

Compound	Activity
O=C(O)C1CCN(CC(=O)N2CCC(n3cc(-c4ncnc5[nH]ccc45)cn3)CC2)CC1	Dose-dependent effect
CC1CCN(CC(=O)N2CCC(n3cc(-c4ncnc5[nH]ccc45)cn3)CC2)CC1	Dose-dependent effect

Tested on: RAW264.7
Experiment: Antiinflammatory activity in mouse RAW264.7 cells assessed as reduction in LPS-induced JAK2 expression by Western blot analysis
Format: functional, cell-based
Details: not given

Compound	Activity
O=C(O)C1CCN(CC(=O)N2CCC(n3cc(-c4ncnc5[nH]ccc45)cn3)CC2)CC1	Dose-dependent effect
CC1CCN(CC(=O)N2CCC(n3cc(-c4ncnc5[nH]ccc45)cn3)CC2)CC1	Dose-dependent effect

Tested on: RAW264.7
Experiment: Antiinflammatory activity in mouse RAW264.7 cells assessed as reduction in LPS-induced upregulation of IL-1 beta expression by Western blot analysis
Format: functional, cell-based
Details: not given

Compound	Activity
O=C(O)C1CCN(CC(=O)N2CCC(n3cc(-c4ncnc5[nH]ccc45)cn3)CC2)CC1	Active
CC1CCN(CC(=O)N2CCC(n3cc(-c4ncnc5[nH]ccc45)cn3)CC2)CC1	Active

Tested on: RAW264.7
Experiment: Antiinflammatory activity in LPS-induced mouse RAW264.7 cells assessed as reduction in NO generation by measuring NO level at 2.5 ug/ml measured after 18 hrs by Griess method
Format: functional, cell-based
Details: not given

Compound	Activity
O=[N+]([O-])c1ccccc1S(=O)(=O)N1CCC(n2cc(-c3ncnc4[nH]ccc34)cn2)CC1	Active
CCS(=O)(=O)N1CC(CC#N)(n2cc(-c3ncnc4[nH]ccc34)cn2)C1	Active
CC1CCN(CC(=O)N2CCC(n3cc(-c4ncnc5[nH]ccc45)cn3)CC2)CC1	Active

Tested on: RAW264.7
Experiment: Antiinflammatory activity in LPS-induced mouse RAW264.7 cells assessed as reduction in NO generation by measuring NO level at 5 ug/ml measured after 18 hrs by Griess method
Format: functional, cell-based
Details: not given

Compound	Activity
O=[N+]([O-])c1ccccc1S(=O)(=O)N1CCC(n2cc(-c3ncnc4[nH]ccc34)cn2)CC1	Active
CCS(=O)(=O)N1CC(CC#N)(n2cc(-c3ncnc4[nH]ccc34)cn2)C1	Active
CC1CCN(CC(=O)N2CCC(n3cc(-c4ncnc5[nH]ccc45)cn3)CC2)CC1	Active

Tested on: RAW264.7
Experiment: Antiinflammatory activity in LPS-induced mouse RAW264.7 cells assessed as reduction in NO generation by measuring NO level at 10 ug/ml measured after 18 hrs by Griess method
Format: functional, cell-based
Details: not given

Compound	Activity
O=[N+]([O-])c1ccccc1S(=O)(=O)N1CCC(n2cc(-c3ncnc4[nH]ccc34)cn2)CC1	Active
CCS(=O)(=O)N1CC(CC#N)(n2cc(-c3ncnc4[nH]ccc34)cn2)C1	Active
CC1CCN(CC(=O)N2CCC(n3cc(-c4ncnc5[nH]ccc45)cn3)CC2)CC1	Active

Tested on: not listed separately
Experiment: Solubility of the compound
Format: physicochemical
Details: not given

Compound	solubility
CS(=O)(=O)N1CCC(n2cc(-c3ncnc4[nH]ccc34)cn2)CC1	Insoluble
COc1ccc(S(=O)(=O)N2CCC(n3cc(-c4ncnc5[nH]ccc45)cn3)CC2)cc1	Insoluble
O=S(=O)(c1ccc(Br)cc1)N1CCC(n2cc(-c3ncnc4[nH]ccc34)cn2)CC1	Insoluble
Cc1ccccc1S(=O)(=O)N1CCC(n2cc(-c3ncnc4[nH]ccc34)cn2)CC1	Insoluble
O=[N+]([O-])c1ccccc1S(=O)(=O)N1CCC(n2cc(-c3ncnc4[nH]ccc34)cn2)CC1	Insoluble
O=S(=O)(c1cc(F)cc(F)c1)N1CCC(n2cc(-c3ncnc4[nH]ccc34)cn2)CC1	Insoluble
N#Cc1ccc(S(=O)(=O)N2CCC(n3cc(-c4ncnc5[nH]ccc45)cn3)CC2)cc1	Insoluble
O=S(=O)(c1ccc(F)cc1)N1CCC(n2cc(-c3ncnc4[nH]ccc34)cn2)CC1	Insoluble
CCS(=O)(=O)N1CCC(n2cc(-c3ncnc4[nH]ccc34)cn2)CC1	Insoluble
O=S(=O)(c1cccc(Br)c1)N1CCC(n2cc(-c3ncnc4[nH]ccc34)cn2)CC1	Insoluble
O=[N+]([O-])c1cccc(S(=O)(=O)N2CCC(n3cc(-c4ncnc5[nH]ccc45)cn3)CC2)c1	Insoluble
O=S(=O)(c1ccc(Cl)cc1)N1CCC(n2cc(-c3ncnc4[nH]ccc34)cn2)CC1	Insoluble
Cc1ccc(S(=O)(=O)N2CCC(n3cc(-c4ncnc5[nH]ccc45)cn3)CC2)cc1	Insoluble
O=S(=O)(c1ccccc1)N1CCC(n2cc(-c3ncnc4[nH]ccc34)cn2)CC1	Insoluble
O=S(=O)(C1CC1)N1CCC(n2cc(-c3ncnc4[nH]ccc34)cn2)CC1	Insoluble
O=[N+]([O-])c1ccc(S(=O)(=O)N2CCC(n3cc(-c4ncnc5[nH]ccc45)cn3)CC2)cc1	Insoluble

Tested on: RAW264.7
Experiment: Antiinflammatory activity in LPS-induced mouse RAW264.7 cells assessed as protection against cell damage by measuring reduction in cell shrinking at 10 ug/ml cotreated with LPS measured after 18 hrs by light microscopy
Format: functional, cell-based
Details: not given

Compound	Activity
O=C(O)C1CCN(CC(=O)N2CCC(n3cc(-c4ncnc5[nH]ccc45)cn3)CC2)CC1	Active
CC1CCN(CC(=O)N2CCC(n3cc(-c4ncnc5[nH]ccc45)cn3)CC2)CC1	Active

Tested on: RAW264.7
Experiment: Antiinflammatory activity in LPS-induced mouse RAW264.7 cells assessed as protection against cell damage by measuring reduction in cell rounding at 10 ug/ml co-treated with LPS measured after 18 hrs by light microscopy
Format: functional, cell-based
Details: not given

Compound	Activity
O=C(O)C1CCN(CC(=O)N2CCC(n3cc(-c4ncnc5[nH]ccc45)cn3)CC2)CC1	Active
CC1CCN(CC(=O)N2CCC(n3cc(-c4ncnc5[nH]ccc45)cn3)CC2)CC1	Active

Target: Tyrosine-protein kinase JAK1 (Homo sapiens) (UniProt P23458)
Sequence (P23458 whole entry): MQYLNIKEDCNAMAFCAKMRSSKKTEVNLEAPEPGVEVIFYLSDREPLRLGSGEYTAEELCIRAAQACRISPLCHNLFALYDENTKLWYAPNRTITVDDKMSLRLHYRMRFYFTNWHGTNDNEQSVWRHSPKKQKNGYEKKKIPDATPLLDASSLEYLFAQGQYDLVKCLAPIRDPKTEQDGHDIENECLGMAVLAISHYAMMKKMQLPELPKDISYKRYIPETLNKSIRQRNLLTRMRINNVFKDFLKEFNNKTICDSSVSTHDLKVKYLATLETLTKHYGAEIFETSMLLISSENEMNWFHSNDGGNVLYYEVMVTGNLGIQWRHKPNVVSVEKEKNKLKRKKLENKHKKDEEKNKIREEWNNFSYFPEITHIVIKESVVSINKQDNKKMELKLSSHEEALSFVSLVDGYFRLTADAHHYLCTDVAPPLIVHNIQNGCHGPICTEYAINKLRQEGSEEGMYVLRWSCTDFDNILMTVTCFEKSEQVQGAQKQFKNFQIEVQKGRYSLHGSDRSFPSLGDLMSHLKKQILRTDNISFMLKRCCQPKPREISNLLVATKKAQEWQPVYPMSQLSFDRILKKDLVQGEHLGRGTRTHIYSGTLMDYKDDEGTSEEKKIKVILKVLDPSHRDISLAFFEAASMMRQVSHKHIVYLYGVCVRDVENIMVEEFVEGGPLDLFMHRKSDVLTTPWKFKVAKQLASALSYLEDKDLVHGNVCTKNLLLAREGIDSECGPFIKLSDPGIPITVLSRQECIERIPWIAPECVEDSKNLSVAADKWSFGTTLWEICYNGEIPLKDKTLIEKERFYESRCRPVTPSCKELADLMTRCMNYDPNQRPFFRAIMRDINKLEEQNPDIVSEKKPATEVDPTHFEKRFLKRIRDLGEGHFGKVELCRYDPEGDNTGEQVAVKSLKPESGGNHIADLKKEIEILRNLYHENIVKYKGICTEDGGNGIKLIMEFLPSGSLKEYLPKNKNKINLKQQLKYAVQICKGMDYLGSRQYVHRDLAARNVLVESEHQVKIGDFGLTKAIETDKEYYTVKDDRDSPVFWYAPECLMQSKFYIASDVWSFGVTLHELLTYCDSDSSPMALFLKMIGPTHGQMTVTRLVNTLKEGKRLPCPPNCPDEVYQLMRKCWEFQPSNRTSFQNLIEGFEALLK
Details: at 10 µM

Compound	inhibition [%]
CS(=O)(=O)N1CCC(n2cc(-c3ncnc4[nH]ccc34)cn2)CC1	22.1
COc1ccc(S(=O)(=O)N2CCC(n3cc(-c4ncnc5[nH]ccc45)cn3)CC2)cc1	53.2
CN1CCN(CC(=O)N2CCC(n3cc(-c4ncnc5[nH]ccc45)cn3)CC2)CC1	72.8
O=S(=O)(c1ccc(Br)cc1)N1CCC(n2cc(-c3ncnc4[nH]ccc34)cn2)CC1	60.3
Cc1ccccc1S(=O)(=O)N1CCC(n2cc(-c3ncnc4[nH]ccc34)cn2)CC1	94.7
O=C(CN1CCN(CCO)CC1)N1CCC(n2cc(-c3ncnc4[nH]ccc34)cn2)CC1	83
O=[N+]([O-])c1ccccc1S(=O)(=O)N1CCC(n2cc(-c3ncnc4[nH]ccc34)cn2)CC1	96.6
O=S(=O)(c1cc(F)cc(F)c1)N1CCC(n2cc(-c3ncnc4[nH]ccc34)cn2)CC1	93.6
N#Cc1ccc(S(=O)(=O)N2CCC(n3cc(-c4ncnc5[nH]ccc45)cn3)CC2)cc1	72.5
CCN(CC)CC(=O)N1CCC(n2cc(-c3ncnc4[nH]ccc34)cn2)CC1	38.6
O=C(CN1CCOCC1)N1CCC(n2cc(-c3ncnc4[nH]ccc34)cn2)CC1	69.6
CN(C)CC(=O)N1CCC(n2cc(-c3ncnc4[nH]ccc34)cn2)CC1	46.9
O=S(=O)(c1ccc(F)cc1)N1CCC(n2cc(-c3ncnc4[nH]ccc34)cn2)CC1	93.4
CCS(=O)(=O)N1CCC(n2cc(-c3ncnc4[nH]ccc34)cn2)CC1	95.2
O=C(CN1CCCC1)N1CCC(n2cc(-c3ncnc4[nH]ccc34)cn2)CC1	55.1
O=S(=O)(c1cccc(Br)c1)N1CCC(n2cc(-c3ncnc4[nH]ccc34)cn2)CC1	72.8
O=[N+]([O-])c1cccc(S(=O)(=O)N2CCC(n3cc(-c4ncnc5[nH]ccc45)cn3)CC2)c1	92.4
O=S(=O)(c1ccc(Cl)cc1)N1CCC(n2cc(-c3ncnc4[nH]ccc34)cn2)CC1	63.7
Cc1ccc(S(=O)(=O)N2CCC(n3cc(-c4ncnc5[nH]ccc45)cn3)CC2)cc1	92.4
O=S(=O)(c1ccccc1)N1CCC(n2cc(-c3ncnc4[nH]ccc34)cn2)CC1	2.7
O=C(O)C1CCN(CC(=O)N2CCC(n3cc(-c4ncnc5[nH]ccc45)cn3)CC2)CC1	92.5
O=S(=O)(C1CC1)N1CCC(n2cc(-c3ncnc4[nH]ccc34)cn2)CC1	59.4
O=[N+]([O-])c1ccc(S(=O)(=O)N2CCC(n3cc(-c4ncnc5[nH]ccc45)cn3)CC2)cc1	99.6
O=C(CN1CCCCC1)N1CCC(n2cc(-c3ncnc4[nH]ccc34)cn2)CC1	65.6
CC1CCN(CC(=O)N2CCC(n3cc(-c4ncnc5[nH]ccc45)cn3)CC2)CC1	90.3
